Legend:
Assay type in all cases: biochemical
Details in all cases: 1-10 μM bletinib or 0.1-3 μM PP2; 125 μM ATP; concentration-dependent
[1] = target: Src (Homo sapiens, UniProt P12931); assay: Cell-free ADP-Glo kinase assay, Src
Procedure: (§1) The kinase activity of SFKs was assessed using an ADP-Glo kinase assay kit (Promega, Fitchburg, USA) according to manufacturer instructions. […] The ADP-Glo reagent was used to end the kinase reaction and remove the remnant ATP; next, the kinase, which converted ADP to ATP, detection reagent was added and incubated for 30 min. Luciferin/luciferase luminescence was determined on an Infinite 200 Pro (Tecan, Switzerland).

[2] = target: Lyn (Homo sapiens, UniProt P07948); assay: Cell-free ADP-Glo kinase assay, Lyn
Chain of Lyn (P07948 whole entry): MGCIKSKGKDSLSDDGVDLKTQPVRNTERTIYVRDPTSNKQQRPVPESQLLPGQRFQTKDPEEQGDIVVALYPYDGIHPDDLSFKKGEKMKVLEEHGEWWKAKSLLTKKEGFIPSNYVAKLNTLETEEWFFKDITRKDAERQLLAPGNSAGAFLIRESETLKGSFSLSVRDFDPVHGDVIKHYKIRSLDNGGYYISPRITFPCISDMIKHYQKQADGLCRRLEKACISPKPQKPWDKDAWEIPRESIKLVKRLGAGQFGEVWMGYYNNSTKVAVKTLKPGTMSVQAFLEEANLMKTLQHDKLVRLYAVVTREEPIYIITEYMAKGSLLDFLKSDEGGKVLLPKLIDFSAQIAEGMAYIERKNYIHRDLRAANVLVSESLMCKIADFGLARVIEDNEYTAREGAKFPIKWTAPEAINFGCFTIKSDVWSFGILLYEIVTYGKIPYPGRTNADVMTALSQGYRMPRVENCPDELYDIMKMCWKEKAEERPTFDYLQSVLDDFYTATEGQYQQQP
Procedure: as §1

[3] = target: Fgr (Homo sapiens, UniProt P09769); assay: Cell-free ADP-Glo kinase assay, Fgr
Chain of Fgr (P09769 whole entry): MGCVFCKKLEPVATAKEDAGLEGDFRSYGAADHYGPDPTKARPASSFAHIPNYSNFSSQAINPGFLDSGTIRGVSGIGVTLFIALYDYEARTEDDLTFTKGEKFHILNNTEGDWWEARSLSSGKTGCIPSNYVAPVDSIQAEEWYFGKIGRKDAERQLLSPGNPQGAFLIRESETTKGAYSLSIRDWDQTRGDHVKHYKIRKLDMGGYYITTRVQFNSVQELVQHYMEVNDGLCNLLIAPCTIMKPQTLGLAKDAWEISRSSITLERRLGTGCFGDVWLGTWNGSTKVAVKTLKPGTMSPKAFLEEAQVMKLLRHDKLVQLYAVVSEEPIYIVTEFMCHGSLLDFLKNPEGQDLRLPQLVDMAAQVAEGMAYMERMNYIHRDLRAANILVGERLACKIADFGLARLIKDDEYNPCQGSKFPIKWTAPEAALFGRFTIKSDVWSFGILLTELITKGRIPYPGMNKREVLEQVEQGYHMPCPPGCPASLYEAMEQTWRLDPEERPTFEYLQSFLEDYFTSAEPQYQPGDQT
Procedure: as §1

Chain of Src (P12931 whole entry): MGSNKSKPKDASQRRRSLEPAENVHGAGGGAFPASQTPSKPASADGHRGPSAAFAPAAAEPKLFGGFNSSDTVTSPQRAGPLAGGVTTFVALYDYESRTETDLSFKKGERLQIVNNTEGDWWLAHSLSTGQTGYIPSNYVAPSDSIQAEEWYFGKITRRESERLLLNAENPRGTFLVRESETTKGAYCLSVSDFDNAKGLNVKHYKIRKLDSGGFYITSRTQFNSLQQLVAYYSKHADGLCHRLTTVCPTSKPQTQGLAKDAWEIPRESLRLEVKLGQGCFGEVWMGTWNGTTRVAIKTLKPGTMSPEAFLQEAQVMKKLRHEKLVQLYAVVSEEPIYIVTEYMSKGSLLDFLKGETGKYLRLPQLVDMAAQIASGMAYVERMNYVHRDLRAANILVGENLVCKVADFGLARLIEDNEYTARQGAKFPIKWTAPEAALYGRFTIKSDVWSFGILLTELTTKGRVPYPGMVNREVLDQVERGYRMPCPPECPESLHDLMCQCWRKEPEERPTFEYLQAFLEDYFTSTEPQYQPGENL

- kinase activity of Src [1]: inhibited
- kinase activity of Lyn [2]: inhibited
- kinase activity of Fgr [3]: inhibited
SMILES: CC(C)(C)n1nc(-c2ccc(Cl)cc2)c2c(N)ncnc21 [PP2, reference compound]

Source: patent US20220339122A1, “METHODS FOR THE TREATMENT OF DISEASES ASSOCIATED WITH DYSREGULATED ACTIVATION AND RECRUITMENT OF NEUTROPHILS” (Chang Gung University, priority 2021, published 2022)
